From PubChem BioAssay (NCI) come the findings set out here.

Molecules are shown by their SMILES. Values joined by “and” are separate entries in the source; they are usually repeats but may differ in a detail not shown here. Equal entries are not always repeated.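 All cell lines were grown in 96-well plates and treated with compound for 48 hours. GI50 marks 50% less growth. TGI marks complete inhibition of growth.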

Holding throughout (test): inhibition of tumour cell growth, NCI panel, 48 h
Assay [1] has as its system PC-3 prostate.
Assay [2] concerns MOLT-4 leukemia.
Assay [3] concerns NCI-H522 lung.
For assay [4], the system named is NCI-H460 lung.
In assay [5] the test system is SF-295 CNS.
For assay [6], the system named is RXF 393 renal.
Assay [7] deals with ACHN renal.
In assay [8] the test system is OVCAR-5 ovarian.
Assay [9] relates to DU-145 prostate.
For assay [10], the system named is LOX IMVI melanoma.

Regarding `CC/C(=C(/c1ccc(/C=C/C(=O)O)cc1)c1ccc2[nH]ncc2c1)c1ccc(F)cc1Cl`, the GI50 in assay [1] was 7.95 µM; in [2] it was 11.3 µM; in [3] it was 9.42 µM; in assay [4], 10.7 µM; in [5] it was 7.81 µM; in [6], 5.31 µM. The GI50 in assay [7] was 9.16 µM; in [8], 17.5 µM; in [9], 14.4 µM; in assay [10], 14.5 µM. In addition, the TGI in assay [1] is 21.6 µM; in assay [2], 37.3 µM; in assay [3], 28.2 µM; in assay [4], 27.7 µM; in assay [5], 21.1 µM; in assay [6] it was 16.3 µM. In addition, the TGI in assay [7] was determined as 24.3 µM; in [8] it was 35.9 µM; in assay [9], 27.6 µM; in assay [10], 39.6 µM.

Turning to `N=C(N)c1ccc(OCCCCCOc2ccc(C(=N)N)cc2)cc1`, the GI50 in assay [1] was 6.92 µM; in assay [2], 23.3 µM and 12 µM and 28.3 µM; in [3], 1.66 µM; in assay [4], 1.68 µM; in assay [6], 6.75 µM; in assay [7], 18.5 µM. Also, the values for the GI50 in [8], in assay [9] and in [10] were 34 µM, 5.64 µM and 8.47 µM, respectively. For the same molecule, the TGI in assay [1] was more than 100 µM; in assay [2], > 50 µM and 51.8 µM and > 100 µM; in [3] it was 9.58 µM and 21.3 µM; in assay [4], 9 µM and 17.4 µM and 18.3 µM; in [5] it was 19.7 µM and 21.3 µM and 77.1 µM; in assay [6], 17.5 µM and 38.6 µM. Further, the TGI in [7] was > 50 µM and 79.2 µM and > 100 µM; in [8] it was > 50 µM and 78.3 µM and > 100 µM; in assay [9] it was 11.9 µM and 27.9 µM and 28.7 µM; in assay [10], 28.8 µM and 37.8 µM and 36.4 µM.

For the molecule `OC1CSCCSCCCSCCSC1`, the TGI in assay [1], in [2], in assay [3], in assay [4], in assay [5] and in [6] was more than 100 µM in each case. Further, the TGI in [7], in assay [8], in assay [9] and in assay [10] was more than 100 µM throughout.

As to `O=C1c2ccccc2-c2c1c1ccc([N+](=O)[O-])cc1c(=O)n2CCCCl`, the GI50 in assay [1] was 15.2 µM; in assay [2] it was 2.1 µM; in [3] it was 86.8 µM; in [4] it was 2.61 µM; in [5] it was 2.25 µM; in assay [6], more than 100 µM. The GI50 was 4.29 µM in [7], more than 100 µM in assay [8], 40.4 µM in [9] and 3.24 µM in assay [10]. The TGI in [1] was more than 100 µM; in assay [2] it was more than 100 µM; in assay [3], more than 100 µM; in assay [4] it was 67.5 µM; in assay [5], more than 100 µM; in assay [6] it was more than 100 µM. Also, the TGI in assay [7], in assay [8], in assay [9] and in assay [10] was more than 100 µM throughout.

Consider `CCOC(=O)c1cc2cc(OCc3ccccc3)ccc2[nH]1`, for which the GI50 is more than 100 µM in assay [1]; 36.7 µM in assay [2]; more than 100 µM in assay [3]; more than 100 µM in assay [4]; more than 100 µM in [5]; more than 100 µM in [6]. Besides, the GI50 in assay [7], in assay [8], in [9] and in assay [10] was more than 100 µM in each case. Also, the TGI in assay [1], in [2], in [3], in assay [4], in [5] and in [6] was more than 100 µM throughout. The TGI in assay [7], in [8], in assay [9] and in assay [10] was more than 100 µM throughout.

`Cc1ccc(C(=O)N2C/C(=C/c3ccccc3)C(=O)/C(=C/c3ccccc3)C2)cc1`: the GI50 in assay [1] was 6.08 µM; in [2] it was 4.98 µM; in assay [3], 11.6 µM; in assay [4] it was 31 µM; in assay [5] it was 5.36 µM; in assay [6], 2.2 µM. The GI50 in assay [7] was 5.04 µM; in [8], more than 75.5 µM; in assay [9] it was 17.8 µM; in assay [10] it was 1.16 µM. The TGI in assay [1] is more than 100 µM; in assay [2], more than 100 µM; in assay [3], more than 56 µM; in [4], more than 100 µM; in [5], more than 100 µM; in assay [6], 6.39 µM. Further, the TGI is more than 67.1 µM in [7], more than 100 µM in [8], more than 100 µM in [9] and 3.08 µM in [10].

For the molecule `COc1cc(OC)c(/C=C/C(=O)c2c(N)cc(OC)cc2OC)c(OC)c1`, the GI50 in [1] was 1.77 µM; in [2], 1.02 µM; in assay [3], 0.234 µM; in assay [4] it was 0.347 µM; in assay [5] it was 0.397 µM; in assay [6], 0.623 µM. Further, the GI50 in assay [7] was 0.722 µM; in assay [8], 2.51 µM; in [9] it was 0.608 µM; in assay [10], 0.537 µM. Besides, the TGI in [1] was more than 100 µM; in [2] it was more than 100 µM; in assay [3], 0.901 µM; in assay [4], more than 51.2 µM; in assay [6], 4.7 µM; in [7], more than 100 µM. Moreover, the TGI in assay [8], in assay [9] and in [10] was more than 100 µM each time.

On to `C=CC[PH+](c1ccccc1)c1ccccc1.C=CC[PH+](c1ccccc1)c1ccccc1.[Pt+2].[S-]c1ncccn1.[S-]c1ncccn1`, for which the GI50 in assay [1] was 11 µM; in assay [2] it was 3.26 µM; in assay [3] it was 2.17 µM; in assay [4], 18.5 µM; in [5], more than 100 µM; in assay [6], 4.67 µM. Further, the GI50 in [7] was 2.14 µM; in assay [8], 15.1 µM; in assay [9] it was 23.9 µM; in [10], 2.18 µM. The TGI in assay [1] is 37.7 µM; in assay [2], more than 100 µM; in assay [3], 5.78 µM; in [4] it was 48.1 µM; in [5] it was more than 100 µM; in assay [6], 18.3 µM. The TGI in assay [7] was 5.31 µM; in assay [8], 34.6 µM; in [9], more than 100 µM; in [10], 5.91 µM.
